Values quoted from earlier work in patent US20250099475A1, “METHODS OF TREATING HYPERTENSION BY PERIODIC SUPPRESSION OF ALDOSTERONE SYNTHASE” (Mineralys Therapeutics, Inc., priority 2022, published 2025).

Conditions: in vivo; cited from earlier work

In the case of `CC(=O)S[C@@H]1CC2=CC(=O)CC[C@]2(C)[C@H]2CC[C@@]3(C)[C@@H](CC[C@@]34CCC(=O)O4)[C@H]12` [Spironolactone], the risk of hyperkalemia is listed as ≤ 10%.
